Assay results: US11033556B2, “Bicyclic sulfonamides” (priority 2019, dated 2021)
Read-outs that look alike come from different tables or passages of the source.

How the values were obtained:
[1] = tested on: HBV; test: HBV-DNA Antiviral Assay Using HepG2.2.15 Cells; assay type: cell-based
Protocol: The following assay procedure describes the HBV antiviral assay. This assay uses HepG2.2.15 cells, which have been transfected with HBV genome, and extracellular HBV DNA quantification as endpoint. Cell viability is assessed in parallel by measuring the intracellular ATP content using the CellTiter-Glo® reagent from Promega.
On day 0, HepG2.2.15 cells were seeded in 96-well plates at a density of 6.0×10^4 cells/well(0.1 ml/well). The cells were incubated at 37° C. and 5% CO2.
On day 1, the test articles were diluted and added to cell culture wells (8 concentrations, 4-fold dilution, in duplicate). GLS4, Tenofovir and Sorafenib were used as reference compounds. 100 μl of culture medium containing the compounds was added to the plate, and the final total volume per well was 200 μl. The final concentration of DMSO in the culture medium was 0.5%. The plate map of compound treatment is shown below. The cells were cultured at 37° C. and 5% CO2 for 3 days.
On day 4, the plates were refreshed with culture media with compounds.
On day 7, cell viability was assessed using the CellTiter-Glo®, and the cell culture supernatants were collected for determination of HBV DNA by qPCR.
Extracellular DNA was isolated with QIAamp 96 DNA Blood Kit per the manufacturer's manual. HBV DNA was then quantified by qPCR with HBV specific primers and probes as specified in Table 2 using the FastStart Universal MasterMix from Roche on an ABI-7900HT. The PCR cycle program consisted of 95° C. for 10 min, followed by 40 cycles at 95° C. for 15 sec and 60° C. for 1 min.
A DNA standard was prepared by dilution of the pAAV2 HBV1.3 plasmid with concentrations ranging from 10 to 1×10^7 […] and used to generate a standard curve by plotting Ct value vs. the concentration of the HBV plasmid DNA standard. The quantity of HBV DNA in each sample was determined by interpolating from the standard curve.
Cell viability was calculated as follows: % Cell viability=(luminescence value of test sample−average luminescence value of blank)/(average luminescence value of 0.5% DMSO control−average luminescence of blank)×100%. HBV DNA inhibition was calculated as follows: 100−(HBV DNA copy number of test sample−HBV DNA copy number of ETV)/HBV DNA copy number of 0.5% DMSO control−HBV DNA copy number of ETV)×100%. The CC50, EC50 and EC90 values were determined by dose-response curves fitted by GraphPad Prism using “log (agonist) vs. response—Variable slope”.

[2] = tested on: genotype D HBV; test: HBV-DNA Antiviral Assay Using HepG2.117 Cells; assay type: cell-based; settings: intracellular HBV DNA by qPCR, day 4
Protocol: The following assay procedure describes the HBV antiviral assay, using HepG2.117 cells, which carry a stably integrated genotype D HBV genome under the control of a Tet-off promoter, and intracellular HBV DNA quantification as endpoint. Cell viability is assessed in parallel by measuring the intracellular ATP content using ATPlite (Perkin Elmer).
On day 0, HepG2.117 cells (which are maintained in routine cell culture with doxycycline present in the medium at a final concentration of 1 μg/mL) were seeded in 96-well plates (white with clear bottom) at a density of 2.0×10^4 cells/well (0.1 mL/well) in medium without doxycycline to induce pgRNA transcription and subsequent formation of HBV particles. The cells were incubated at 37° C. and 5% CO2.
On day 1, medium was removed from each well, the test articles were diluted in culture medium without doxcycyline and 100 μL was added to cell culture wells (9 concentrations, 4-fold dilution). For each plate, 6 untreated (merely DMSO) wells were included. The final concentration of DMSO in the culture medium was 2%. Each plate was prepared in duplicate (one for HBV DNA extraction, one for ATPlite measurement). The cells were incubated at 37° C. and 5% CO2 for 3 days.
On day 4, cell viability was assessed using ATPlite and cell lysates were prepared for HBV DNA extraction and subsequent quantification by qPCR.
Medium was removed from each well and 100 μL of 0.33% NP-40 in H2O was added to each well. Plates were sealed, incubated at 4° C. for 5 mins, vortexed extensively and centrifuged briefly. Next, 35 μL of lysate was added to 65 μL QuickExtract DNA Extraction Solution (Epicentre) in a PCR plate for each well. PCR plate was incubated at 65° C. for 6 mins, 98° C. for 2 mins and finally cooled to 4° C. HBV DNA was then quantified by qPCR with HBV-specific primers and probes as specified in Table 4 using the Bio-Rad SSOAdvanced Universal Probes Supermix on a CFX96 machine (Bio-Rad). The PCR cycle program consisted of 95° C. for 3 mins, followed by 40 cycles at 95° C. for 10 sec and 60° C. for 30 sec.
A DNA standard was prepared by dilution of an IDT gBlock corresponding to the amplicon with concentrations ranging from 10^2 to 10^8 copies/input (i.e. per 4 μL) and used to generate a standard curve by plotting Cq values vs. HBV DNA standard concentration. The quantity of HBV DNA in each sample was determined by interpolating from the standard curve.
Cell viability was calculated as follows: % Cell viability=(luminescence value of test sample)/(average luminescence value of 2% DMSO control)×100%. HBV DNA inhibition was calculated as follows: 100−(HBV DNA copy number of test sample)/(average HBV DNA copy number of 2% DMSO control)×100%. No normalization to entecavir was required due to the excellent dynamic window of this assay. The CC50, EC50 and EC90 values were determined by dose-response curves fitted by GraphPad Prism using “log (agonist) vs. response—Variable slope”.

[3] = Hepatitis B virus, HepG2.2.15 cells, extracellular HBV DNA by qPCR, one class for the group of four: *at least 2 of the diastereomers have the indicated activity, read-out: EC50

| Compound | EC50 [1, 3] [nM] | also measured |
| --- | --- | --- |
| C=C[C@H]1COc2c(cn(C)c2C(=O)Nc2ccc(F)c(C#N)c2)S(=O)(=O)N1 [Compound 1, (3S)—N-(3-cyano-4-fluorophenyl)-3-ethenyl-7-methyl-1,1-dioxo-2H,3H,4H-11λ6-pyrrolo[3,4-b][1,4,5]oxathiazepine-6-carboxamide] |  | EC50 ([1]; HepG2.2.15 cells, extracellular HBV DNA by qPCR, day 7, read-out: EC50): < 1000 nM; EC50 [2]: 1 to 10 nM |
| C#C[C@@H](O)[C@H]1CCc2c(cn(C)c2C(=O)Nc2ccc(F)c(C#N)c2)S(=O)(=O)N1 [Compound 2A, (3R)—N-(3-cyano-4-fluorophenyl)-3-[(1R)-1-hydroxyprop-2-yn-1-yl]-7-methyl-1,1-dioxo-2H,3H,4H,5H-1λ6-pyrrolo[3,4-f][1,2]thiazepine-6-carboxamide] | < 1000 |  |
| C#C[C@H](O)[C@H]1CCc2c(cn(C)c2C(=O)Nc2ccc(F)c(C#N)c2)S(=O)(=O)N1 [Compound 2B, (3R)—N-(3-cyano-4-fluorophenyl)-3-[(1S)-1-hydroxyprop-2-yn-1-yl]-7-methyl-1,1-dioxo-2H,3H,4H,5H-1λ6-pyrrolo[3,4-f][1,2]thiazepine-6-carboxamide] | < 1000 |  |
| C#C[C@H](O)[C@@H]1CCc2c(cn(C)c2C(=O)Nc2ccc(F)c(C#N)c2)S(=O)(=O)N1 [Compound 2C, (3S)—N-(3-cyano-4-fluorophenyl)-3-[(1S)-1-hydroxyprop-2-yn-1-yl]-7-methyl-1,1-dioxo-2H,3H,4H,5H-1λ6-pyrrolo[3,4-f][1,2]thiazepine-6-carboxamide] | < 1000 |  |
| C#C[C@@H](O)[C@@H]1CCc2c(cn(C)c2C(=O)Nc2ccc(F)c(C#N)c2)S(=O)(=O)N1 [Compound 2D, (3S)—N-(3-cyano-4-fluorophenyl)-3-[(1R)-1-hydroxyprop-2-yn-1-yl]-7-methyl-1,1-dioxo-2H,3H,4H,5H-1λ6-pyrrolo[3,4-f][1,2]thiazepine-6-carboxamide] | < 1000 |  |
| CC#C[C@@H](O)[C@H]1CCc2c(cn(C)c2C(=O)Nc2ccc(F)c(C#N)c2)S(=O)(=O)N1 [Compound 3A, (3R)—N-(3-cyano-4-fluorophenyl)-3-[(1R)-1-hydroxybut-2-yn-1-yl]-7-methyl-1,1-dioxo-2H,3H,4H,5H-1λ6-pyrrolo[3,4-f][1,2]thiazepine-6-carboxamide] |  | EC50 ([1]; Hepatitis B virus, HepG2.2.15): < 1000 nM |
| CC#C[C@H](O)[C@@H]1CCc2c(cn(C)c2C(=O)Nc2ccc(F)c(C#N)c2)S(=O)(=O)N1 [Compound 3C, (3S)—N-(3-cyano-4-fluorophenyl)-3-[(1S)-1-hydroxybut-2-yn-1-yl]-7-methyl-1,1-dioxo-2H,3H,4H,5H-1λ6-pyrrolo[3,4-f][1,2]thiazepine-6-carboxamide] |  | EC50 ([1]; Hepatitis B virus, HepG2.2.15): < 1000 nM |
| CC#C[C@@H](O)[C@@H]1CCc2c(cn(C)c2C(=O)Nc2ccc(F)c(C#N)c2)S(=O)(=O)N1 [Compound 3D, (3S)—N-(3-cyano-4-fluorophenyl)-3-[(1R)-1-hydroxybut-2-yn-1-yl]-7-methyl-1,1-dioxo-2H,3H,4H,5H-1λ6-pyrrolo[3,4-f][1,2]thiazepine-6-carboxamide] |  | EC50 ([1]; Hepatitis B virus, HepG2.2.15): < 1000 nM |
| C=C[C@@H](O)[C@H]1CCc2c(cn(C)c2C(=O)Nc2ccc(F)c(C#N)c2)S(=O)(=O)N1 [Compound 4A, (3R)—N-(3-cyano-4-fluorophenyl)-3-[(1R)-1-hydroxyprop-2-en-1-yl]-7-methyl-1,1-dioxo-2H,3H,4H,5H-1λ6-pyrrolo[3,4-f][1,2]thiazepine-6-carboxamide] | < 1000 |  |
| C=C[C@H](O)[C@H]1CCc2c(cn(C)c2C(=O)Nc2ccc(F)c(C#N)c2)S(=O)(=O)N1 [Compound 4B, (3R)—N-(3-cyano-4-fluorophenyl)-3-[(1S)-1-hydroxyprop-2-en-1-yl]-7-methyl-1,1-dioxo-2H,3H,4H,5H-1λ6-pyrrolo[3,4-f][1,2]thiazepine-6-carboxamide] | < 1000 |  |
| C=C[C@H](O)[C@@H]1CCc2c(cn(C)c2C(=O)Nc2ccc(F)c(C#N)c2)S(=O)(=O)N1 [Compound 4C, (3S)—N-(3-cyano-4-fluorophenyl)-3-[(1S)-1-hydroxyprop-2-en-1-yl]-7-methyl-1,1-dioxo-2H,3H,4H,5H-1λ6-pyrrolo[3,4-f][1,2]thiazepine-6-carboxamide] | < 1000 |  |
| C=C[C@@H](O)[C@@H]1CCc2c(cn(C)c2C(=O)Nc2ccc(F)c(C#N)c2)S(=O)(=O)N1 [Compound 4D, (3S)—N-(3-cyano-4-fluorophenyl)-3-[(1R)-1-hydroxyprop-2-en-1-yl]-7-methyl-1,1-dioxo-2H,3H,4H,5H-1λ6-pyrrolo[3,4-f][1,2]thiazepine-6-carboxamide] | < 1000 |  |
| Cn1cc2c(c1C(=O)Nc1ccc(F)c(C#N)c1)OC[C@H](C=C(F)F)NS2(=O)=O [Compound 6A] |  | EC50 ([1]; Hepatitis B virus, 168 h, HepG2.2.15 cells, extracellular HBV DNA by qPCR, day 7, read-out: EC50): < 1000 nM |
